Test results taken from patent US20240376126A1, “PRMT5 INHIBITOR AND THE USE THEREOF” (CYTOSINLAB THERAPEUTICS CO., LTD., priority 2022, published 2024).
Like-named read-outs stand apart in the source and are kept apart here.

Assays:
[1] = tested on: HCT116-MTAP-KO (MTAP null) cells; assay: Proliferation inhibition of HCT116 MTAP-KO cells in vitro (CellTiter Glo, 6 days); assay type: cell-based; conditions: read-out: Cell proliferation inhibition rate HCT116-MTAP null IC50 (nm)
Description: (§1) Biological Test Example 2 Proliferation Inhibition of HCT116 and HCT116 MTAP-KO Cells In Vitro
(§2) HCT116 cell line was purchased from the Chinese Academy of Sciences Cell Bank, and the MTAP gene was knocked out by CRISPR/Cas9 technology to obtain HCT116-MTAP-KO cell line.
(§3) McCoy's 5A medium (Gibco, catalog No. 16600082), fetal bovine serum (Gibco, catalog No. 10099141C), penicillin-streptomycin double antibody (Gibco, catalog No. 15140122), pancreatic enzyme (Gibco, catalog No. 25200056), CellTiter Glo assay kit (Promega, catalog No. G7572), 384-well transparent flat-bottomed black walled cell culture plate (Corning, catalog No. 3764), ultra micro sampler (Tecan, catalog No. D300e), Multimode reader (Biotek, catalog No. SynergyHTX)
(§4) • 1. Cell culture: HCT116 and HCT116-MTAP-KO cells were cultured in McCoy'5A medium+10% fetal bovine serum+1% penicillin-streptomycin double antibody; to ensure that they were always in the logarithmic growth phase and the cell viability greater than 95%. • 2. Compound concentration gradient preparation: The compound to be tested was added to a 384-well plate using an ultra micro sampler, starting from 30 μM (HCT116 cells) or 3 μM (HCT116-MTAP-KO cells), and diluted with DMSO at 3 times for a total of 9 concentrations and set up three duplicate wells. • 3. Treatment of cells with compounds: Trypsin-digested HCT116 or HCT116-MTAP-KO cell suspension was added to the 384-well plates spotted with the compounds to be tested at 40 μL per well, i.e., 100 cells per well, and the final concentration of DMSO was 0.4%. The cell culture plate was incubated at 37° C. in a 5% CO2 incubator for 6 days. • 4. Detection: 20 μL of CellTiter Glo reagent was added to each well of the cell culture plate and incubated at room temperature for 30 minutes. A multimode reader was used to detect the luminescence signal at […]. • 5. Data analysis:
(§5) The data was fitted with GraphPad Prism 8.0 software using a four parameter inhibitor-reaction model to obtain the […] (half inhibitory concentration) of the test compounds.
(§6) The first column represents cell proliferation inhibition rate HCT116 MTAP WT IC50 (nm), and the second column represents cell proliferation inhibition rate HCT116-MTAP null IC50 (nm): […]

HCT116 MTAP WT cells = assay: Proliferation inhibition of HCT116 cells in vitro (CellTiter Glo, 6 days); assay type: cell-based; conditions: read-out: Cell proliferation inhibition rate HCT116 MTAP WT IC50 (nm)
Description: as §1, §2, §3, §4, §5, §6

IC50 ([1]; HCT116-MTAP null, 144 h) | IC50 (HCT116 MTAP WT cells; Homo sapiens, HCT-116, 144 h) | IC50 [1] | IC50 (HCT116 MTAP WT cells) | SMILES
< 100 nM | 1000 to 10000 nM | – | – | Cc1nn(C)cc1N(Cc1cn2cc(C(F)(F)F)ccc2n1)C(=O)c1ccc2nc(N)c3c(c2c1)CO[C@@H]3C [Example 305, (3R)-4-Amino-N-(1,3-dimethylpyrazol-4-yl)-3-methyl-N-[[6-(trifluoromethyl)imidazo[1,2-a]pyridin-2-yl]methyl]-1,3-dihydrofurano[3,4-c]quinolin-8-carboxamide]
100 to 1000 nM | 1000 to 10000 nM | – | – | Cn1cc(N(Cc2cn3cc(C(F)(F)F)ccc3n2)C(=O)c2ccc3nc(N)c4cnn(C)c4c3c2)cn1 [Example 16]
< 100 nM | 1000 to 10000 nM | – | – | CC(C)CN(Cc1cn2ccccc2n1)C(=O)c1ccc2nc(N)c3c(c2c1)COC3C (stereo not drawn) [Example 53]
100 to 1000 nM | 1000 to 10000 nM | – | – | CCN(Cc1cn2ccccc2n1)C(=O)c1cc2c(cc1F)nc(N)c1cnc(C)n12 [Example 184]
< 100 nM | 1000 to 10000 nM | – | – | COc1ccc(N(Cc2cn3ccccc3n2)C(=O)c2cc3c(cc2F)nc(N)c2cnc(C)n23)cn1 [Example 229]
– | – | < 100 nM | 100 to 1000 nM | Cc1nn(C)cc1N(Cc1cn2cc(C(F)(F)F)ccc2n1)C(=O)c1cc2c(cc1F)nc(N)c1cnn(C)c12 [Example 104]
100 to 1000 nM | 1000 to 10000 nM | – | – | Cc1ncc2c(N)nc3cc(F)c(C(=O)N(Cc4ccc5c(c4)CCO5)c4cnn(C)c4)cc3n12 [Example 219]
< 100 nM | 100 to 1000 nM | – | – | CCn1nccc1N(Cc1cn2cc(C(F)(F)F)ccc2n1)C(=O)c1cc2c(cc1F)nc(N)c1cnc(C)n12 [Example 242]
< 100 nM | 1000 to 10000 nM | – | – | CCn1cc(N(Cc2nc3ccc(C(F)(F)F)cn3c2F)C(=O)c2ccc3nc(N)c4c(c3c2)COC4)c(C)n1 [Example 101]
< 100 nM | 1000 to 10000 nM | – | – | C[C@@H]1OCc2c1c(N)nc1ccc(C(=O)N(Cc3cn4cc(C(F)(F)F)ccc4n3)c3cnn(C)c3)cc21 [Example 49]
< 100 nM | 1000 to 10000 nM | – | – | COC1CCCC1N(Cc1cn2ccccc2n1)C(=O)c1cc2c(cc1F)nc(N)c1cnc(C)n12 (stereo not drawn) [Example 185]
100 to 1000 nM | 1000 to 10000 nM | – | – | Cc1ncn2c1c(N)nc1ccc(C(=O)N(c3cnn(C)c3)C(C)c3cn4cc(C(F)(F)F)ccc4n3)cc12 (stereo not drawn) [Example 292]
100 to 1000 nM | 1000 to 10000 nM | – | – | Cc1ncc2c(N)nc3cc(F)c(C(=O)N(Cc4cn5ccccc5n4)c4cnn(C)c4)cc3n12 [Example 181]
100 to 1000 nM | 1000 to 10000 nM | – | – | Cc1ncc2c(N)nc3cc(F)c(C(=O)N(Cc4cn5ccccc5n4)CC(F)(F)F)cc3n12 [Example 180]
< 100 nM | 1000 to 10000 nM | – | – | CCN(C(=O)c1cc2c(cc1F)nc(N)c1c(C)ncn12)C1COc2cc(C(F)(F)F)ccc21 (stereo not drawn) [Example 215]
100 to 1000 nM | 1000 to 10000 nM | – | – | CCN(Cc1cc2ccccn2n1)C(=O)c1ccc2nc(N)c3cnc(C)n3c2c1 [Example 159]
100 to 1000 nM | 1000 to 10000 nM | – | – | CCN(Cc1cn2ccccc2n1)C(=O)c1cc2c(cc1Cl)nc(N)c1cnc(C)n12 [Example 192]
< 100 nM | 1000 to 10000 nM | – | – | Cn1nccc1N(Cc1cn2cc(C(F)(F)F)ccc2n1)C(=O)c1ccc2nc(N)c3c(c2c1)COC3 [Example 107]
100 to 1000 nM | 1000 to 10000 nM | – | – | Nc1nc2cc(F)c(C(=O)N(Cc3cn4cc(C(F)(F)F)ccc4n3)C3CCOC3)cc2c2c1COC2 (stereo not drawn) [Example 94]
< 100 nM | 1000 to 10000 nM | – | – | CC(N(Cc1cn2ccccc2n1)C(=O)c1cc2c(cc1F)nc(N)c1cnn(C)c12)C(F)(F)F (stereo not drawn) [Example 28]
< 100 nM | 100 to 1000 nM | – | – | CC(c1ncccn1)N(Cc1nc2cnccc2s1)C(=O)c1ccc2nc(N)c3c(c2c1)COC3 (stereo not drawn) [Example 304, 4-Amino-N-(1-(pyrimidin-2-yl)ethyl)-N-(thiazolo[4,5-c]pyridin-2-ylmethyl)-1,3-dihydrofurano[3,4-c]quinolin-8-carboxamide]
< 100 nM | 1000 to 10000 nM | – | – | CCN(Cc1cn2ccccc2n1)C(=O)c1ccc2nc(N)c3c(c2c1)COC3C (stereo not drawn) [Example 7]
100 to 1000 nM | 1000 to 10000 nM | – | – | Cc1ncn2c1c(N)nc1cc(F)c(C(=O)N(Cc3cn4ccccc4n3)C3CCC3O)cc12 (stereo not drawn) [Example 261]
< 100 nM | 100 to 1000 nM | – | – | COCCN(Cc1cn2ccccc2n1)C(=O)c1cc2c(cc1C)nc(N)c1cnc(C)n12 [Example 166]

IC50 ([1]; HCT116-MTAP null, 144 h) | IC50 (HCT116 MTAP WT cells; Homo sapiens, HCT-116, 144 h) | IC50 [1] | IC50 (HCT116 MTAP WT cells) | SMILES
< 100 nM | 1000 to 10000 nM | – | – | CCN(Cc1cn2cc(C(F)(F)F)ccc2n1)C(=O)c1cc2c3c(c(N)nc2cc1F)COC3 [Example 85]
100 to 1000 nM | 1000 to 10000 nM | – | – | Cn1ncc2c(N)nc3cc(F)c(C(=O)N(Cc4cn5ccccc5n4)C4CCOC4)cc3c21 (stereo not drawn) [Example 22]
< 100 nM | 100 to 1000 nM | – | – | Cn1cc(N(Cc2nc3ccccn3c2F)C(=O)c2cc3c4c(c(N)nc3cc2F)COC4)cn1 [Example 83]
100 to 1000 nM | 1000 to 10000 nM | – | – | CCN(Cc1cc2c(cn1)OCC2)C(=O)c1cc2c(cc1F)nc(N)c1cnc(C)n12 [Example 214]
< 100 nM | 1000 to 10000 nM | – | – | Cc1cn2c(n1)c(N)nc1cc(F)c(C(=O)N(Cc3nc4ccccn4c3F)CC(C)C)cc12 [Example 188]
< 100 nM | 1000 to 10000 nM | – | – | Cc1ncc2c(N)nc3cc(F)c(C(=O)N(Cc4cn5cc(C(F)(F)F)ccc5n4)c4cnn(C)c4)cc3n12 [Example 183]
100 to 1000 nM | 1000 to 10000 nM | – | – | CCN(C(=O)c1ccc2nc(N)c3c(C)ncn3c2c1)C(C)c1cn2ccccc2n1 (stereo not drawn) [Example 298]
< 100 nM | 100 to 1000 nM | – | – | Cn1ncc(F)c1N(Cc1cn2cc(C(F)(F)F)ccc2n1)C(=O)c1ccc2nc(N)c3cnn(C)c3c2c1 [Example 115]
< 100 nM | 1000 to 10000 nM | – | – | CCN(Cc1cc2ccccn2n1)C(=O)c1cc2c(cc1F)nc(N)c1cnc(C)n12 [Example 250]
100 to 1000 nM | 1000 to 10000 nM | – | – | CCN(Cc1cn2nc(C(F)(F)F)ccc2n1)C(=O)c1cc2c(cc1F)nc(N)c1c(C)ncn12 [Example 213]
100 to 1000 nM | 1000 to 10000 nM | – | – | Cc1ncn2c1c(N)nc1cc(F)c(C(=O)N(Cc3nc4ccc(C(F)(F)F)cc4[nH]3)CC(C)C)cc12 [Example 269]
100 to 1000 nM | 1000 to 10000 nM | – | – | Cc1ncn2c1c(N)nc1cc(F)c(C(=O)N(CCC#N)Cc3cn4ccccc4n3)cc12 [Example 264]
< 100 nM | 100 to 1000 nM | – | – | CC(C)CN(Cc1nc2ccccn2c1F)C(=O)c1cc2c(cc1F)nc(N)c1cnn(C)c12 [Example 58]
100 to 1000 nM | 1000 to 10000 nM | – | – | CC(c1ncccn1)N(Cc1cn2c(n1)COCC2)C(=O)c1ccc2nc(N)c3c(c2c1)CCC3 (stereo not drawn) [Example 157]
< 100 nM | 1000 to 10000 nM | – | – | Cc1ncn2c1c(N)nc1cc(F)c(C(=O)N(Cc3cn4cc(C(F)(F)F)ccc4n3)c3cnn(C)c3)cc12 [Example 259]
100 to 1000 nM | 1000 to 10000 nM | – | – | CCN(Cc1cn2cc(-c3cnn(C)c3)ccc2n1)C(=O)c1cc2c(cc1F)nc(N)c1c(C)ncn12 [Example 258]
100 to 1000 nM | 1000 to 10000 nM | – | – | Cc1ncc2c(N)nc3cc(F)c(C(=O)N(Cc4nc5ccc(C(F)(F)F)cc5[nH]4)CC(C)C)cc3n12 [Example 276]
< 100 nM | 1000 to 10000 nM | – | – | CC1OCc2c1c(N)nc1ccc(C(=O)N(Cc3cn4cc(C(F)(F)F)ccc4n3)C34CC(C3)C4)cc21 (stereo not drawn) [Example 43]
< 100 nM | 1000 to 10000 nM | – | – | CCN(C(=O)c1cc2cc(C)c(N)nc2cc1F)C(C)c1cn2ccccc2n1 (stereo not drawn) [Example 40]
< 100 nM | 1000 to 10000 nM | – | – | Cc1nn(C)cc1N(Cc1cn2cc(C(F)(F)F)ccc2n1)C(=O)c1cc2c(cc1F)nc(N)c1cnc(C)n12 [Example 234]
< 100 nM | 1000 to 10000 nM | – | – | Cn1ncc2c(N)nc3cc(F)c(C(=O)N(Cc4cn5ccccc5n4)C45CC(F)(C4)C5)cc3c21 [Example 59]
1000 to 10000 nM | 1000 to 10000 nM | – | – | C[C@H]1OCc2c1c(N)nc1ccc(C(=O)N(Cc3cn4c(C(F)(F)F)cccc4n3)c3cnn(C)c3)cc21 [Example 72]
100 to 1000 nM | 1000 to 10000 nM | – | – | CCN(Cc1nc2cc(C(F)(F)F)ccc2[nH]1)C(=O)c1cc2c(cc1F)nc(N)c1cnc(C)n12 [Example 140]
< 100 nM | 1000 to 10000 nM | – | – | Cc1ncccc1N(Cc1cn2cc(C(F)(F)F)ccc2n1)C(=O)c1ccc2nc(N)c3c(c2c1)COC3C (stereo not drawn) [Example 100]
